{
  "source": "patent US10759839B2",
  "about": "“Cell-penetrating peptide” (NEOREGEN BIOTECH, priority 2016, dated 2020)",
  "key": {"[1]": {"test_system": "NIH3T3 cell line", "experiment": "Cell penetration efficiency of FITC-labelled p53C, Tat-Ara-19 and ICT-53 (FIG. 7)", "format": "cell-based", "details": "1 μM, 1 hour", "method": "FIG. 7 is a graph showing results of comparing the cell penetration efficiencies of p53C, Tat-ara-19 and ICT-53 peptides.\nA p53C peptide having 22 amino acid sequences and Tat-Ara-19 peptide, as well as the ICT-53 peptide, in which the p53C peptide is fused to the Tat-Ara-19 peptide, were synthesized, then fluorescein isothiocyanate (FITC, fluorescent material) was adhered to the C-terminus thereof so as to fluoresce. These peptides were used to examine the cell penetration efficiency for 1 hour at a concentration of 1 μM in a NIH3T3 cell line. […] In this experiment, the penetration efficiency in a situation including serum was also examined."}, "[2]": {"test_system": "U2OS cancer cell line", "experiment": "Anti-cancer effect of purified ICT-53 peptide (FIGS. 9 and 10)", "format": "cell-based", "details": "for each concentration"}, "[3]": {"test_system": "Human mesenchymal stem cells (human MSCs)", "experiment": "Confocal microscopy of intracellular localisation with membrane marker FM-64 (FIG. 3)", "format": "cell-based", "excerpt": "Further, in order to determine whether the Ara-27 cell-penetrating peptide is actually present in intracellular nuclei or cytoplasm, the Ara-27 peptide was fluorescently treated, and then analyzed using a confocal microscope. Human mesenchymal stem cells (human MSCs) were placed in a DMEM cell culture medium containing 10% FBS in a 6-well plate. […] Next, a membrane marker (FM-64) was used to examine whether the peptides are actually present inside the cell membrane. The cells were removed with trypsin to allow reagents to be inserted into the cell membrane, and the reagents were treated to perform the analysis. At this time, it can be confirmed that most of peptides were present in cytoplasmic parts inside the cell membranes, and some of the peptides were also present in the nucleus (FIG. 3)."}, "[4]": {"test_system": "NIH3T3 fibroblast", "experiment": "Cell penetration efficiency of FITC-peptides, heparin and trypsin washing, FACS (FIG. 6)", "format": "cell-based", "details": "1 μM", "excerpt": "FIG. 6 is a graph showing results of comparing the cell penetration efficiencies of Ara-27, ara-20, R8-Ara-19 and Ara-8 cell-penetrating peptides in a NIH3T3 fibroblast.\n(§1) In order to confirm the cell penetration efficiency of each cell-penetrating peptide, fluorescein isothiocyanate (FITC, fluorescent material), which fluoresces each peptide, was adhered to each peptide, then penetration efficiencies thereof were examined.\nWhen measuring the cell penetration efficiency, in order to remove each cell-penetrating peptide which may be adhered to the cell membrane surface, a Heparin & Trypsin washing method used in the Kaplan group was applied thereto [Kaplan I M, Wadia J S, Dowdy S F (2005) Cationic TAT peptide transduction domain enters cells by macropinocytosis. J Controlled release 102: 247-253). In summary, in the experiments to be described below, each cell-penetrating peptide was put into a cell growth medium at a concentration of 1 μM, incubated for 30 minutes, and then the cells were washed 3 times with Heparin, followed by separating the cells with trypsin to perform a FACS analysis.\nNext, the cell penetration efficiencies of Ara-27 and the cell-penetrating peptides including amino acid sequences of SEQ ID NO: 1 (Ara-20), SEQ ID NO: 3 (R8-Ara-19), and SEQ ID NO: 11 (Ara-8) of the examples in a NIH3T3 fibroblast were compared."}, "[5]": {"test_system": "mesenchymal stem cell (MSC)", "experiment": "Cell penetration of FITC-labelled peptide by concentration, FACS fluorescence intensity (FIG. 1)", "format": "cell-based, human", "details": "1 hour", "excerpt": "FIG. 1 is a graph showing that a cell membrane penetration efficiency of Ara-27 cell-penetrating peptide is increased in proportion to a concentration in mesenchymal stem cell (MSC) derived from a human body. In the graph, a Y axis represents a fluorescence intensity, which is an index indicating an amount of introduced peptides per unit cell.\nas §1\nWhen measuring the cell penetration efficiency, in order to remove each cell-penetrating peptide which may be adhered to the cell membrane surface, a Heparin & Trypsin washing method used in the Kaplan group was applied thereto [Kaplan I M, Wadia J S, Dowdy S F (2005) Cationic TAT peptide transduction domain enters cells by macropinocytosis. J Controlled release 102: 247-253). […]\nIn the mesenchymal stem cell (MSC), an amount of the cell-penetrating peptide (Ara-27) including an amino acid sequence of SEQ ID NO: 2 into the cell was determined for each concentration."}, "[6]": {"test_system": "human-derived MSCs", "experiment": "Fluorescence microscopy of peptide entry into cells (FIG. 2)", "format": "cell-based", "details": "1 μM, 30 minutes, medium containing 10% serum, heparin washing, trypsin", "method": "An experiment was conducted in a medium containing 10% serum, and after treatment for 30 minutes at a concentration of 1 μM, fluorescent peptides adhered to the cell surface were removed using a heparin washing method, and then the cell was separated therefrom by treatment with trypsin. FIG. 2 is photographs of cells taken by the fluorescence microscope after separation."}},
  "note": "“Also recorded” adds a separate entry of the source. Where no end group is shown, it is not given here.",
  "data": [
    {"substance": "Tat-Ara-19: cell-penetrating peptide including an amino acid sequence of SEQ ID NO: 4 (RKKRRQRRCFRCRQAGHWISDCRLKSK; Tat-Ara-19)", "values": [
      {"measurement": "cell penetration efficiency (in words)", "setting": "[1]", "value": "high efficiency"}
    ]},
    {"substance": "RKKRRQRRCFRCRQAGHWISDCRLKSKGSRAHSSHLKSKKGQSTSRHKK (cysteines drawn unpaired) [ICT-53]", "values": [
      {"measurement": "anti-cancer effect, dependence on concentration", "setting": "[2]", "value": "in proportion to the concentration"},
      {"measurement": "cell penetration efficiency (in words)", "setting": "[1]", "value": "high efficiency"}
    ]},
    {"substance": "Ara-27: cell-penetrating peptide including an amino acid sequence of SEQ ID NO: 2, Arabidopsis thaliana-derived (RNQRKTVRCFRCRQAGHWISDCRLKSK; Ara-27)", "values": [
      {"measurement": "location of the peptide in the cell", "setting": "[3]; 2 μM, DMEM containing 10% FBS", "value": "most of the Ara-27 peptides were present in the cytoplasm"},
      {"measurement": "persistence of the peptide in the cell", "setting": "[3]; 5 μM, 18 hours after penetration", "value": "stably exist therein"},
      {"measurement": "location of the peptide in the cell", "setting": "[3]; 5 μM, 18 hours after penetration, membrane marker", "value": "not only in the cytoplasm but also in the nucleus"},
      {"measurement": "efficiency of penetrance into the cell", "setting": "[4]; within 30 minutes, environment including serum", "value": "≥ 90", "unit": "%"},
      {"measurement": "amount of the peptide introduced per unit cell (fluorescence intensity)", "setting": "[5]; for each concentration", "value": "increased in proportion to the concentration"},
      {"measurement": "peptides that entered the cells, seen by fluorescence microscope", "setting": "[6]", "value": "found across all the cells; also recorded: high fluorescence intensity"}
    ]},
    {"substance": "Tat-PTD: Tat-PTD (SEQ ID NO: 12), a well-known cell-penetrating peptide, used as control group (RKKRRQRR; Tat-PTD) [reference compound]", "values": [
      {"measurement": "cell penetration efficiency (in words)", "setting": "[4]; NIH3T3 fibroblast, 30 minutes", "value": "very low level"},
      {"measurement": "amount of the peptide introduced per unit cell (fluorescence intensity)", "setting": "[5]; even at 5 μM", "value": "remarkably low"},
      {"measurement": "peptides that entered the cells, seen by fluorescence microscope", "setting": "[6]", "value": "very rarely found"}
    ]},
    {"substance": "p53C: p53C peptide (SEQ ID NO: 5), peptide of a C-terminal region of a p53 protein, 22 amino acids (GSRAHSSHLKSKKGQSTSRHKK; p53C) [reference compound]", "values": [
      {"measurement": "cell penetration efficiency (in words)", "setting": "[1]", "value": "did not penetrate into the cell"}
    ]}
  ]
}
